PMC11466185, “Mechanisms and efficacy of small molecule latency-promoting agents to inhibit HIV reactivation ex vivo” (JCI Insight, 2024)
“Also recorded” adds a separate entry of the source.

System: PolyA HIV RNA in the supernatant
Assay: Supernatant viral RNA (polyadenylated HIV RNA, RT-ddPCR) at day 6 after T cell activation
Assay type: cell-based
Conditions: for Viral RNA in supernatant (PolyA HIV RNA), median relative to activated DMSO: day 6 after anti-CD3/CD28 activation, Figure 5; for Polyadenylated HIV RNA in supernatant (Fig 5, Fig S6B) / Polyadenylated HIV RNA in supernatant (Fig 5): day 6
Procedure: PBMCs were cultured in the presence of individual drugs in DMSO or DMSO alone as control, activated (anti-CD3/CD28), and assessed for levels of PolyA HIV RNA in the supernatant at day 6.
Each drug was tested in PBMCs from 6 ART-suppressed study participants (except for triptolide, n = 5). PBMCs were aliquoted into wells at 6 × 10^6 cells/well. After activation, the cells were cultured with antiretrovirals in the presence of individual drugs in DMSO or DMSO alone as control. All conditions were tested in the presence of CD3/28 T cell–activating beads, except for the unactivated DMSO condition. After 6 days, RNA was extracted from the culture supernatant. Polyadenylated HIV RNA in the supernatant was quantified by RT-ddPCR, expressed as copies/mL, and then normalized to the levels of the activated DMSO (% of activated DMSO). Medians and IQR are presented, as well as the individual values per study participant in different colors. Comparisons were performed using Wilcoxon’s signed-rank test.
For quantification of cell-associated HIV transcripts, PBMCs were harvested either after 24 hours or after 6 days. The cell viabilities were measured by trypan blue staining; then the cells were pelleted by centrifuging at 300g for 6 minutes and stored at –80°C. For quantification of virion-associated HIV RNA, cell culture supernatant was collected from 6 × 10^6 PBMCs that were treated and activated for 6 days as described above. Residual cells and cellular debris were subsequently removed from the supernatant by differential centrifugation (300g for 6 minutes, then 20,000g for 10 minutes), and the supernatant was stored at –80°C.
Total cellular DNA and RNA were extracted in parallel using Trireagent (Molecular Research Center) according to the manufacturer’s instructions, except for study participants 2147 and 2461 (Figure 4), for whom DNA and RNA were extracted using the QIAGEN AllPrep DNA/RNA/miRNA Universal Kit with on-column DNase I treatment of the RNA and the manufacturer’s modification to enhance recovery of short transcripts. RNA and DNA concentrations were measured using UV spectrophotometry (NanoDrop One, Thermo Fisher Scientific). Total initiated HIV (TAR) transcripts were quantified by a 3-step polyadenylation RT-ddPCR as described previously ([8], [84]). HIV 5′ elongated (LLTR), midtranscribed (Pol), completed (PolyA), and multiply spliced (TatRev) transcripts were quantified by a 2-step RT-ddPCR as previously described ([8]). The levels of each HIV transcript were normalized to 1 μg of total cellular RNA and expressed as a percentage of the (activated) DMSO control. To quantify virion-associated RNA in supernatant, RNA was extracted from 400 μL supernatant using Trireagent-LS (Molecular Research Center) according to the manufacturer’s instructions. Levels of U3-polyadenylated HIV RNA were measured in the supernatant by RT-ddPCR, normalized to copies/mL, and expressed as a percentage of the activated DMSO. For measuring the HIV infection frequency at day 6, the HIV DNA U3-U5 LTR region was quantified by using ddPCR as described previously ([8]). HIV DNA copies were normalized to cell numbers according to the mass of DNA input per well (calculated from the DNA concentration and input volume) ([85]).

| Molecule | Viral RNA in supernatant (PolyA HIV RNA), median relative to activated DMSO | Polyadenylated HIV RNA in supernatant (Fig 5, Fig S6B) (study participant 150b) | Polyadenylated HIV RNA in supernatant (Fig 5, Fig S6B) (study participant 1713) | Polyadenylated HIV RNA in supernatant (Fig 5) (study participant 2147b) | Polyadenylated HIV RNA in supernatant (Fig 5) (study participant 2256) | Polyadenylated HIV RNA in supernatant (Fig 5) (study participant 5557) | Polyadenylated HIV RNA in supernatant (Fig 5) (study participant 163) | Polyadenylated HIV RNA in supernatant (Fig 5) (study participant 2027) | Polyadenylated HIV RNA in supernatant (Fig 5) (study participant 2161) | Polyadenylated HIV RNA in supernatant (Fig 5) (study participant 2747) | Polyadenylated HIV RNA in supernatant (Fig 5) (study participant 156) | Polyadenylated HIV RNA in supernatant (Fig 5) (study participant 2750) | Polyadenylated HIV RNA in supernatant (Fig 5) (study participant 150a) |
| --- | --- | --- | --- | --- | --- | --- | --- | --- | --- | --- | --- | --- | --- |
| mithramycin A | tended to reduce; also recorded: inhibited the production of viral RNA in supernatant in 5 out of 6 study participants | 2.42 % of activated DMSO | 2.06 % of activated DMSO | 0 % of activated DMSO | 2.15 % of activated DMSO | 0 % of activated DMSO | – | – | – | – | – | – | – |
| O=c1c(O)c(-c2ccc(O)c(O)c2)oc2cc(O)cc(O)c12 [quercetin] | – | 315.15 % of activated DMSO | – | 8.6 % of activated DMSO | 134.41 % of activated DMSO | – | 85.4 % of activated DMSO | 20.42 % of activated DMSO | 4.65 % of activated DMSO | 9.09 % of activated DMSO | – | – | – |
| COc1ccc(-c2cc(=O)c3c(O)cc(O)c(-c4cc(-c5cc(=O)c6c(O)cc(O)cc6o5)ccc4OC)c3o2)cc1 [isoginkgetin] | – | 303.03 % of activated DMSO | – | 63.16 % of activated DMSO | 4.84 % of activated DMSO | 39.4 % of activated DMSO | – | 8.41 % of activated DMSO | 0 % of activated DMSO | – | – | – | – |
| CCc1cnn2c(NCc3ccc[n+]([O-])c3)cc(N3CCCC[C@H]3CCO)nc12 [dinaciclib] | – | 11.52 % of activated DMSO | – | 0 % of activated DMSO | – | – | 133.94 % of activated DMSO | 0 % of activated DMSO | 4.65 % of activated DMSO | 23.64 % of activated DMSO | 0 % of activated DMSO | – | – |
| CO[C@H]([C@@H](C)[C@H]1O[C@]1(C)C[C@H](C)/C=C/C=C(\C)[C@H]1O[C@@H](CC(=O)O)CC[C@@H]1C)[C@@H](C)O [herboxidiene] | tended to reduce | 67.27 % of activated DMSO | – | 0 % of activated DMSO | 1.61 % of activated DMSO | 42.05 % of activated DMSO | – | 240.24 % of activated DMSO | 4.65 % of activated DMSO | – | – | – | – |
| C=CCNC1=C2C[C@@H](C)C[C@H](OC)[C@H](O)[C@@H](C)/C=C(\C)[C@H](OC(N)=O)[C@@H](OC)/C=C\C=C(/C)C(=O)NC(=CC1=O)C2=O [tanespimycin] | – | 0 % of activated DMSO | 0 % of activated DMSO | 0 % of activated DMSO | 2.15 % of activated DMSO | 0 % of activated DMSO | – | – | – | – | – | 0 % of activated DMSO | – |
| CNc1ccc([N+](=O)[O-])c(Nc2ccc3[nH]ncc3c2)n1 [KRIBB11] | did not inhibit | – | – | 47.37 % of activated DMSO | 93.55 % of activated DMSO | – | 90.15 % of activated DMSO | 444.44 % of activated DMSO | – | 72.27 % of activated DMSO | 18.79 % of activated DMSO | – | 72.41 % of activated DMSO |
| CC(C)[C@]12O[C@H]1[C@@H]1O[C@]13[C@]1(O[C@H]1C[C@H]1C4=C(CC[C@@]13C)C(=O)OC4)[C@@H]2O [triptolide] | 0.0% | 0 % of activated DMSO | – | 0 % of activated DMSO | 2.15 % of activated DMSO | 0 % of activated DMSO | – | – | – | – | – | 0 % of activated DMSO | – |
| CN1CC[C@H](c2c(O)cc(O)c3c(=O)cc(-c4ccccc4Cl)oc23)[C@H](O)C1 [alvocidib] | – | 81.21 % of activated DMSO | – | 0 % of activated DMSO | 81.72 % of activated DMSO | 155.63 % of activated DMSO | – | 504.5 % of activated DMSO | 41.86 % of activated DMSO | – | – | – | – |
| pladienolide B | 3.8% | – | – | 0 % of activated DMSO | – | – | 15.15 % of activated DMSO | 63.66 % of activated DMSO | 0 % of activated DMSO | 0 % of activated DMSO | 7.61 % of activated DMSO | 0 % of activated DMSO | 17.33 % of activated DMSO |
| N#CC[C@H](C1CCCC1)n1cc(-c2ncnc3[nH]ccc23)cn1 [ruxolitinib] | – | – | – | 0 % of activated DMSO | – | – | 0.53 % of activated DMSO | 0 % of activated DMSO | 5.81 % of activated DMSO | 0 % of activated DMSO | 0 % of activated DMSO | 0 % of activated DMSO | 6.55 % of activated DMSO |
| CC(=O)N[C@@H]1CCC[C@H](C(=O)Nc2cc(-c3cnn4c3CC(C)(C)C4)c(Cl)cn2)C1 [AZD4573] | 1.9% | – | – | 0.7 % of activated DMSO | – | – | 90.51 % of activated DMSO | 0 % of activated DMSO | 0 % of activated DMSO | 17.73 % of activated DMSO | 3.19 % of activated DMSO | 0 % of activated DMSO | 27.84 % of activated DMSO |
